The nature of data set [1]: Downregulation of BUB1B protein expression level in human CAKI-1 cells at 10 uM incubated for 1 day by Western blot analysis (Rvb =1). The class given is functional. (In general: Immunoblotting shows a protein as a band on a membrane.)
In data set [2] the test system is CAKI-1. Nature of the data set: Induction of apoptosis in human CAKI-1 cells assessed as increase in cleaved caspase-8 protein level at 10 uM incubated for 1 day by Western blot analysis. The class given is functional, cell-based.
Data set [3] relates to CAKI-1. Nature of the data set: Induction of apoptosis in human CAKI-1 cells assessed as increase in cleaved PARP level by measuring fold change at 10 uM incubated for 1 day by Western blot analysis (reference value: 1). The class given is functional.
The nature of data set [4]: Cytotoxicity against human HaCaT cells assessed as cell viability at 1 uM incubated for 1 day relative to control. The class given is toxicity, cell-based. Conditions: read-out: Activity.
For data set [5], the system named is CAKI-1. As to the kind of experiment: Cytotoxicity against human CAKI-1 cells assessed as reduction in cell viability incubated for 3 days by MTT assay. The class given is functional, cell-based.
In data set [6] the test system is CAKI-1. Nature of the data set: Cytotoxicity against human CAKI-1 cells assessed as cell viability at 10 uM incubated for 1 day by MTT assay relative to control. Conditions: CAKI-1, 24 h, read-out: Activity. The class given is functional.
The subject of data set [7] is CAKI-1. As to the kind of experiment: Cytotoxicity against human CAKI-1 cells assessed as necrotic cell death incubated for 1 day by LDH assay. The class given is functional, cell-based. The settings on record: CAKI-1, 24 h.
Data set [8] deals with CAKI-1. As to the kind of experiment: Induction of apoptosis in human CAKI-1 cells assessed as decrease in Bcl-2 protein level by measuring fold change at IC50 concentration incubated for 1 day by Western blot analysis (reference value: 1). The class given is functional.
For data set [9], the system named is CAKI-1. As to the kind of experiment: Cytotoxicity against human CAKI-1 cells assessed as necrotic cell death incubated for 3 days by LDH assay. The class given is functional, cell-based. The settings on record: CAKI-1, 72 h.
Data set [10] can be described thus: Cytotoxicity against human HaCaT cells assessed as cell viability at 5 uM incubated for 1 day relative to control. The class given is toxicity, cell-based. Conditions: read-out: Activity.
In data set [11] the test system is CAKI-1. As to the kind of experiment: Induction of apoptosis in human CAKI-1 cells assessed as increase in cleaved PARP level by measuring fold change at IC50 concentration incubated for 1 day by Western blot analysis (reference value: 1). The class given is functional.
Data set [12] has as its system CAKI-1. Nature of the data set: Induction of apoptosis in human CAKI-1 cells assessed as increase in cleaved caspase-3 protein level at 10 uM incubated for 1 day by Western blot analysis. The class given is functional, cell-based.
The nature of data set [13]: Cytotoxicity against human MRC5 cells assessed as cell viability at 1 uM incubated for 1 day relative to control. The class given is toxicity, cell-based. The settings on record: read-out: Activity.
The target in data set [14] is T1, Mitotic checkpoint serine/threonine-protein kinase BUB1 beta (Homo sapiens, UniProt O60566). Nature of the data set: Inhibition of recombinant BUB1B (unknown origin) incubated for 60 mins in presence of [gamma-33P]-ATP by microplate scintillation counter analysis.
Data set [15] relates to CAKI-1. Nature of the data set: Induction of apoptosis in human CAKI-1 cells assessed as increase in cleaved caspase-9 protein level at 10 uM incubated for 1 day by Western blot analysis. The class given is functional, cell-based.
The nature of data set [16]: Cytotoxicity against human MRC5 cells assessed as cell viability at 5 uM incubated for 1 day relative to control. The class given is toxicity, cell-based. The settings on record: read-out: Activity.
In data set [17] the test system is CAKI-1. Nature of the data set: Induction of apoptosis in human CAKI-1 cells assessed as decrease in Bcl-2 protein level by measuring fold change at 10 uM incubated for 1 day by Western blot analysis (reference value: 1). The class given is functional.
Data set [18] has as its system CAKI-1. Nature of the data set: Cytotoxicity against human CAKI-1 cells assessed as cell viability at 10 uM incubated for 3 day by MTT assay relative to control. The class given is functional. Conditions: CAKI-1, 72 h, read-out: Activity. In general terms: Formazan colour is commonly taken as a measure of viable cells.
For data set [19], the system named is CAKI-1. As to the kind of experiment: Cytotoxicity against human CAKI-1 cells assessed as reduction in cell viability incubated for 1 day by MTT assay. Conditions: CAKI-1, 24 h. The class given is functional, cell-based.
Data set [20] concerns the target T1, Mitotic checkpoint serine/threonine-protein kinase BUB1 beta. As to the kind of experiment: Destabilization of BUB1B in human CAKI-1 cells assessed as reduction in BUB1B protein level at 20 uM preincubated for 1 hrs followed by incubation under 45 degreeC for 3 mins by CETSA analysis (reference value: 1). The class given is cell-based. Conditions: time 63.0 min.

Data set [21] in a line: Downregulation of BUB1B protein expression level in human CAKI-1 cells at IC50 concentration incubated for 1 day by Western blot analysis (Rvb =1). The class given is functional.

Each structure is given as a SMILES string. Calls of active or inactive are those of the source. No cut-off for these calls is given here.

T1 sequence (O60566 whole entry): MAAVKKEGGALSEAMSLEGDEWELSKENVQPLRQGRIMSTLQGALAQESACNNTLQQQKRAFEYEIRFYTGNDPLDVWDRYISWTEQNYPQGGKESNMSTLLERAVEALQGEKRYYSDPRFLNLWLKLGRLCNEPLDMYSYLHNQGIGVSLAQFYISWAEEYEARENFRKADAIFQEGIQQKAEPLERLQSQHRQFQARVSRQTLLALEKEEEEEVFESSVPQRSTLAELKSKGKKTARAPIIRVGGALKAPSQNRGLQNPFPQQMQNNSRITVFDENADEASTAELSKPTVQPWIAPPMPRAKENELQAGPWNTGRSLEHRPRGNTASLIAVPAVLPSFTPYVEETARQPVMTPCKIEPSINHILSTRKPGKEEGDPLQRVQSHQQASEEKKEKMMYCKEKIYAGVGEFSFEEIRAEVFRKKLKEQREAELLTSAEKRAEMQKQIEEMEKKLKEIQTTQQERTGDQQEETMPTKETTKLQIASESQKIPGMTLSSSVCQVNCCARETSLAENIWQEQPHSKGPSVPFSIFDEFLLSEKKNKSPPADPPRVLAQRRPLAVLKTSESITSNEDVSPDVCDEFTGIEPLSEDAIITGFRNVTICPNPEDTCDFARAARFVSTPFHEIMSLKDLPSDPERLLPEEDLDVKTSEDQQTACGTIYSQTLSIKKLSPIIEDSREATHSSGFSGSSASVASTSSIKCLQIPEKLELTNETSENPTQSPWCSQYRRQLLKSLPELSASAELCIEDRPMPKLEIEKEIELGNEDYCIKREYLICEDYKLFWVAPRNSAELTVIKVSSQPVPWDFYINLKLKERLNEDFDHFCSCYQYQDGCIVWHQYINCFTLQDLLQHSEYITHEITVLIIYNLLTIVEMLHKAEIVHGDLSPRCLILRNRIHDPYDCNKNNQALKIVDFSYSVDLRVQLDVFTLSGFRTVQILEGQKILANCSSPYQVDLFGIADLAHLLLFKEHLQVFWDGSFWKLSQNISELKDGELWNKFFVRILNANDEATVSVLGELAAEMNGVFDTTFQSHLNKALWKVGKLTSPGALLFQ

One may read the IC50 as the concentration needed to halve the response being measured. As a reminder, the EC50 is the midpoint of the concentration-response curve. On to `Cc1cnc(Nc2ccc(N3CCN(C)CC3)cc2)nc1Nc1cccc(S(=O)(=O)NC(C)(C)C)c1`, for which the “fold change (FC)” value came out at 0.02 in data set [1]; 24.35 in [3]; 0.62 in data set [8]; 2.65 in data set [11]; 0.28 in [17]; 2.19 in [20]. The “fold change (FC)” value in data set [21] is 0.14. For the same compound, the outcome in data set [2], in [12] and in data set [15] was Active. Also, the viability at 24 h, 1 µM was 76.4% in data set [4] and 107% in [13]. Also, the IC50 is 1.1 µM in [5] (CAKI-1, 72 h); 23.9 µM in data set [7]; 67.3 µM in data set [14]; 1.5 µM in data set [19]. Besides, in data set [5] (time 3.0 day), the Activity result is “Dose-dependent-effect”. Besides, the viability at 10 µM in data set [6] stood at 43.6%; in data set [18], 18.9%. Besides, in data set [9], the EC50 was 6.6 µM. The figures for the viability at 24 h, 5 µM in [10] and in data set [16] were 39.4% and 38.8%, respectively.

(Values after ChEMBL document CHEMBL6121040, “Synthesis and biological assessment of BUB1B inhibitors for the treatment of clear cell renal cell carcinoma” (Eur J Med Chem, 2025).)
